Measured values as given in ChEMBL document CHEMBL3045834 (Med Chem Res, 2004).

Experiments:
Rattus norvegicus [1] = species on record: Rattus norvegicus; test: Selectivity ratio for antagonist activity at alpha1D adrenergic receptor in Rattus norvegicus (rat) aorta to antagonist activity at alpha1A adrenergic receptor in vas deferens
Rattus norvegicus [2] = species on record: Rattus norvegicus; test: Selectivity ratio for antagonist activity at alpha1B adrenergic receptor in Rattus norvegicus (rat) spleen to antagonist activity at alpha1D adrenergic receptor in aorta; format: tissue-based
Rattus norvegicus [3] = species on record: Rattus norvegicus; test: Selectivity ratio for antagonist activity at alpha1B adrenergic receptor in Rattus norvegicus (rat) spleen to antagonist activity at alpha1A adrenergic receptor in rat vas deferens; format: tissue-based
[4] = molecular target: T1, Alpha-1D adrenergic receptor (Rattus norvegicus, UniProt P23944); test: Competitive antagonist activity at alpha1D adrenergic receptor in Rattus norvegicus (rat) aorta assessed as inhibition of (-)-noradrenaline-induced contraction; conditions: read-out: pA2 (converted)
T1 sequence (P23944 whole entry): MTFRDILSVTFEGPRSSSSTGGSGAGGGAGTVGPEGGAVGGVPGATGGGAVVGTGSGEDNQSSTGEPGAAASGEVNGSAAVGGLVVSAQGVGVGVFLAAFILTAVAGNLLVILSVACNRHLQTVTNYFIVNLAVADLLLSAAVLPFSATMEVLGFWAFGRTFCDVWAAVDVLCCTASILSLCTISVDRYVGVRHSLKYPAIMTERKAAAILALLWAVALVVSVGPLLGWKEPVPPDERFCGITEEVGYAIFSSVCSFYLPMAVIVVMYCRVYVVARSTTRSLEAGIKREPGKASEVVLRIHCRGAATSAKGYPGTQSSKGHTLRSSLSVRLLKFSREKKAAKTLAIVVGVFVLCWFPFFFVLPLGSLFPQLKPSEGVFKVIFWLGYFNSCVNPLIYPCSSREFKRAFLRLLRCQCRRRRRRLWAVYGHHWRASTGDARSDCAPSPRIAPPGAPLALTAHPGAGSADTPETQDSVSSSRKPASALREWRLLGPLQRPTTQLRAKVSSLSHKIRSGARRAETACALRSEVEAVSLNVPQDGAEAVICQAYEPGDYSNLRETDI

[5] = molecular target: T2, Alpha-1B adrenergic receptor (Rattus norvegicus) (UniProt P15823); test: Noncompetitive antagonist activity at alpha1B adrenergic receptor in Rattus norvegicus (rat) spleen assessed as inhibition of (-)-phenylephrine-induced contraction
T2 sequence (whole entry): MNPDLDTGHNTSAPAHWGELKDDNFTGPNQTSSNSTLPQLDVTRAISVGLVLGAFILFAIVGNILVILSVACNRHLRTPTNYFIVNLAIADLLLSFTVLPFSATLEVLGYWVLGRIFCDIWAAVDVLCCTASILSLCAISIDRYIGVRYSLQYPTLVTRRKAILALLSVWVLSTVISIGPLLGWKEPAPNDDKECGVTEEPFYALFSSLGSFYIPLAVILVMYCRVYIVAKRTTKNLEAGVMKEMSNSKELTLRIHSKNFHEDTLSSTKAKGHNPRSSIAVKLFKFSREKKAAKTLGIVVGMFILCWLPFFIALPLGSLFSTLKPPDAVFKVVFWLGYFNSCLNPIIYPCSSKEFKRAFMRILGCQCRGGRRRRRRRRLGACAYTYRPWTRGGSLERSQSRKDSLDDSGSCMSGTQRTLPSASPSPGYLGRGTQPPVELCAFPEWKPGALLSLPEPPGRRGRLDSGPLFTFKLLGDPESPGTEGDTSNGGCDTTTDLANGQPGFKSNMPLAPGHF

[6] = molecular target: T3, Alpha-1A adrenergic receptor (Rattus norvegicus) (UniProt P43140); test: Noncompetitive antagonist activity at alpha1A adrenergic receptor in Rattus norvegicus (rat) vas deferens assessed as inhibition of (-)-noradrenaline-induced contraction
T3 sequence (whole entry): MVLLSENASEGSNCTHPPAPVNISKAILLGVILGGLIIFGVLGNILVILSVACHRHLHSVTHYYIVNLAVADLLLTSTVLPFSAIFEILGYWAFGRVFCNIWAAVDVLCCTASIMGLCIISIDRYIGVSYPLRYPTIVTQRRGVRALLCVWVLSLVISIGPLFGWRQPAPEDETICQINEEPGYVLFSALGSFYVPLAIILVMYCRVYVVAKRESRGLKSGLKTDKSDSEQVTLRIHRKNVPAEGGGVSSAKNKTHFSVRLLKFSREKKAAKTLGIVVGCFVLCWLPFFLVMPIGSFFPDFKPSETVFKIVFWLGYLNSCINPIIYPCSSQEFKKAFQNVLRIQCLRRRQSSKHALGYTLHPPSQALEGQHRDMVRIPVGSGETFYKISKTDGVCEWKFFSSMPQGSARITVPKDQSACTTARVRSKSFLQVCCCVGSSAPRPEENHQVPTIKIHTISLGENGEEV

[7] = molecular target: T4, Alpha-1D adrenergic receptor (Homo sapiens, UniProt P25100); test: Displacement of [3H]prazosin from Homo sapiens (human) alpha1D adrenergic receptor
T4 sequence (P25100 whole entry): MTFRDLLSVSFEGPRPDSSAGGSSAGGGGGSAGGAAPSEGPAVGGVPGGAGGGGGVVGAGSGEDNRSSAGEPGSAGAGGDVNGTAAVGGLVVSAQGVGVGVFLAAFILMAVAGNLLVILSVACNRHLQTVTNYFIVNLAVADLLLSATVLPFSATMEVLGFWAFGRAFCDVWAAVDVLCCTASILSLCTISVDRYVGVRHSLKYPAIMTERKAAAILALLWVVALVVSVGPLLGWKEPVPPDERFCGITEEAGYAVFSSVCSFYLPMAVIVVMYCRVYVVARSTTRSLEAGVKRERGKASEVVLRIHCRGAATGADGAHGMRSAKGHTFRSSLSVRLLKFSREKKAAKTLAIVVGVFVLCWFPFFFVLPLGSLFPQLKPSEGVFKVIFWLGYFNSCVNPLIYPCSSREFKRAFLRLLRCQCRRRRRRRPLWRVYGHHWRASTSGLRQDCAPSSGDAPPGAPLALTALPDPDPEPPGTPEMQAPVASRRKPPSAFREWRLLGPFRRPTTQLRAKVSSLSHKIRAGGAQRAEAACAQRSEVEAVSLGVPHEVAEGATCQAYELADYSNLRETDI

[8] = molecular target: T5, Alpha-1B adrenergic receptor (Homo sapiens, UniProt P35368); test: Displacement of [3H]prazosin from Homo sapiens (human) alpha1B adrenergic receptor
T5 sequence (P35368 whole entry): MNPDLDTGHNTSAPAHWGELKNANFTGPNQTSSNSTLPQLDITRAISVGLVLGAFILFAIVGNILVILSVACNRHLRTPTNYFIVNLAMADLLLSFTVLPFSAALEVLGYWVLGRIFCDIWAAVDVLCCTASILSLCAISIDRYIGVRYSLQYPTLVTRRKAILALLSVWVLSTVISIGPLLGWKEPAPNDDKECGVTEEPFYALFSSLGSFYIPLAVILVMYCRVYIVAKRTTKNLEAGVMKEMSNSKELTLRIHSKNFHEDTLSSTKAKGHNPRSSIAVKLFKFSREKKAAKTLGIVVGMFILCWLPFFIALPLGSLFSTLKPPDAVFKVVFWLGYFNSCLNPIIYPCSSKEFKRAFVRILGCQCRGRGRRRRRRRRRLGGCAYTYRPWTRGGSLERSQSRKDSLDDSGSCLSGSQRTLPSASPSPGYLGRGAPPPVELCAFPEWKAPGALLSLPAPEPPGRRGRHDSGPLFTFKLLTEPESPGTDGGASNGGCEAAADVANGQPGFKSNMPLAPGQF

[9] = molecular target: T6, Alpha-1A adrenergic receptor (Homo sapiens, UniProt P35348); test: Displacement of [3H]prazosin from Homo sapiens (human) alpha1A adrenergic receptor
T6 sequence (P35348 whole entry): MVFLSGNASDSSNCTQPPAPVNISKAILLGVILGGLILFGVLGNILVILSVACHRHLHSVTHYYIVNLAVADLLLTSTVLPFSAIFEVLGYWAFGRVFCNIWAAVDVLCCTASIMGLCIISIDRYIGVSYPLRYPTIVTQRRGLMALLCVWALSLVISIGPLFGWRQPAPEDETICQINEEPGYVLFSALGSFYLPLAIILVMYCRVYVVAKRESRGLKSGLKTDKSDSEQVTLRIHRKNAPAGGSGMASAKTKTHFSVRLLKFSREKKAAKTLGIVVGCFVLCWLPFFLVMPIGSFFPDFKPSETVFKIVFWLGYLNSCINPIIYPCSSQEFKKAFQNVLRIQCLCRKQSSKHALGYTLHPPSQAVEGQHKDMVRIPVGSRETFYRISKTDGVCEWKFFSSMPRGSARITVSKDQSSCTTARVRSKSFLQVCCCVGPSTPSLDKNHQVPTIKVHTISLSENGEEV

[10] = molecular target: T7, Alpha-1A adrenergic receptor (Rattus norvegicus, UniProt P43140); test: Antagonist activity at alpha1A adrenoreceptor in Rattus norvegicus (rat) small mesenteric artery; conditions: read-out: pA2 (converted)
T7 sequence (P43140 whole entry): T3 sequence (whole entry)

[11] = molecular target: T5, Alpha-1B adrenergic receptor; test: Binding affinity to alpha1B adrenoreceptor (unknown origin) by radioligand binding assay
[12] = molecular target: T7, Alpha-1A adrenergic receptor; test: Competitive antagonist activity at alpha1A adrenergic receptor in Rattus norvegicus (rat) vas deferens assessed as inhibition of (-)-noradrenaline-induced contraction; conditions: read-out: pA2 (converted)

Compound	Selectivity ratio (Rattus norvegicus [1])	Selectivity ratio (Rattus norvegicus [2])	Selectivity ratio (Rattus norvegicus [3])	Kb [4] [nM]	pKb [5]	pKb [6]	Ki [7] [nM]	Ki [8] [nM]	Ki [9] [nM]	Kb [10] [nM]	Ki [11] [nM]	Kb [12] [nM]
COc1cc2nc(N3CCN(C(=O)c4ccc(C(C)=O)o4)[C@H]4CCCC[C@@H]43)nc(N)c2cc1OC	0.2	1510	302	214	9.85	7.37	7.41	1.38	25.7	–	–	–
COc1cc2nc(N3CCN(C(=O)c4ccc(Br)o4)[C@H]4CCCC[C@@H]43)nc(N)c2cc1OC	0.5	398	199	58.9	9.83	7.53	1.55	0.309	3.47	–	–	–
COc1cc2nc(N3CCN(C(=O)c4ccco4)[C@H]4CCCC[C@H]43)nc(N)c2cc1OC [(+)-CYCLAZOSIN]	–	–	–	–	–	–	–	–	–	16.6	0.692	–
COc1ccc(C(=O)N2CCN(c3nc(N)c4cc(OC)c(OC)cc4n3)[C@H]3CCCC[C@@H]32)o1	1.6	457	724	89.1	9.71	–	3.63	0.871	27.5	–	–	141
COc1cc2nc(N3CCN(C(=O)c4ccc(C)o4)[C@H]4CCCC[C@@H]43)nc(N)c2cc1OC	2.3	174	407	91.2	9.28	6.67	4.79	0.871	23.4	–	–	–
